From ChEMBL document CHEMBL1201862, “PubChem BioAssay data set” (2004)
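The compound was tested at five concentrations on cells cultured in 96-well plates, with a 48-hour exposure period. At the GI50, growth is halved.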 Active and inactive are the calls of the source. Rule as the data show it: active = GI50 up to about 1.1 µM and inactive = higher.

Experiments:
Experiment in all cases: growth of human tumour cells (NCI), 48 h
[1] = test system: CAKI-1
[2] = test system: M14
[3] = test system: COLO 205
[4] = test system: SNB-75
[5] = test system: U-251
[6] = test system: OVCAR-4
[7] = test system: SW-620
[8] = test system: SF-268
[9] = test system: SK-OV-3
[10] = test system: UACC-62
[11] = test system: RXF 393
[12] = test system: NCI-H226
[13] = test system: EKVX
[14] = test system: TK-10
[15] = test system: SK-MEL-5
[16] = test system: SNB-19
[17] = test system: NCI-H460

Measured: GI50

CCCN(CCCCC(NC(C)=O)C(=O)NCc1ccccc1)C(=O)NC (stereo unspecified)
inactive: [1] > 100 µM | [2] > 100 µM | [3] > 100 µM | [4] 95.7 µM | [5] > 100 µM | [6] > 100 µM | [7] > 100 µM | [8] > 100 µM | [9] > 100 µM | [10] > 100 µM | [11] > 100 µM | [12] > 100 µM | [13] > 100 µM | [14] > 100 µM | [15] > 100 µM | [16] > 100 µM | [17] > 100 µM

C=CCCC(OCOCCOC)c1cc(C)c(O[Si](C)(C)C(C)(C)C)c(C)c1 (stereo unspecified)
inactive: [2] 34.4 µM | [3] 16.7 µM | [4] 15.6 µM | [5] 14.3 µM | [7] 16 µM | [8] 15.2 µM | [9] 25.4 µM | [10] 10.7 µM | [11] 13.8 µM | [12] 13.5 µM | [13] 32.2 µM | [14] 22 µM | [15] 10.1 µM | [16] 6.32 µM | [17] 13.9 µM

Cc1nc(-c2cccnc2)sc1C(=O)/C=C/c1cccc([N+](=O)[O-])c1
inactive: [1] > 100 µM | [3] > 100 µM | [4] > 100 µM | [5] > 100 µM | [7] > 100 µM | [8] > 100 µM | [9] > 100 µM | [10] > 100 µM | [11] > 100 µM | [12] > 100 µM | [13] > 100 µM | [14] > 100 µM | [15] > 100 µM | [17] > 100 µM

BrC/C=C/C[P+](c1ccccc1)(c1ccccc1)c1ccccc1
inactive: [2] 13.7 µM | [3] 4.53 µM | [4] 19.8 µM | [5] 24 µM | [6] 41.1 µM | [7] 6.52 µM | [8] 15.7 µM | [9] 86.5 µM | [10] 9.04 µM | [14] 11.6 µM | [15] 11.1 µM | [16] 21.3 µM | [17] 7.46 µM

C1=CC=C2NCCSCC/N=C3/C=CC=CC=C3NCCSCC/N=C\2C=C1
inactive: [1] > 100 µM | [2] > 100 µM | [3] > 100 µM | [4] > 100 µM | [5] > 100 µM | [6] > 100 µM | [7] > 100 µM | [8] > 100 µM | [9] > 100 µM | [10] > 100 µM | [12] > 100 µM | [13] > 100 µM | [14] > 100 µM | [15] > 100 µM | [16] > 100 µM | [17] > 100 µM

CN(C)CCC1(C2=CCCC2)CC/C(=C\c2ccccc2Cl)C1=O (stereo unspecified)
inactive: [2] 12.1 µM | [3] 16.2 µM | [5] 12.6 µM | [6] 11.9 µM | [7] 11.9 µM | [8] 14.3 µM | [10] 14.6 µM | [11] 4.49 µM | [13] 15.6 µM | [14] 18.7 µM | [15] 12.8 µM | [16] 14.3 µM | [17] 13.2 µM

CC(=O)NC1=C(NC(C)(C)C)C(=O)c2ccccc2C1=O
inactive: [1] 16.1 µM | [2] 17.1 µM | [3] 83.4 µM | [4] 13.6 µM | [5] 37 µM | [6] 20.1 µM | [7] 14.1 µM | [8] 26.9 µM | [9] 54 µM | [10] 13.7 µM | [11] 17.9 µM | [12] 14.5 µM | [13] 28.2 µM | [14] 19.3 µM | [15] 18.2 µM | [16] 43.2 µM | [17] 19.2 µM

O=C(N/N=C(\c1nc2ccc(Cl)cc2nc1O)C(O)c1ccccc1Cl)c1ccncc1 (stereo unspecified)
inactive: [1] > 100 µM | [2] > 100 µM | [3] > 100 µM | [4] > 100 µM | [6] > 100 µM | [7] > 100 µM | [8] > 100 µM | [9] > 100 µM | [10] > 100 µM | [11] > 100 µM | [12] > 100 µM | [13] > 100 µM | [14] > 100 µM | [15] > 100 µM | [16] > 100 µM | [17] > 100 µM

CN(C)CC1(C)CC/C(=C\c2ccc(Cl)cc2)C1=O (stereo unspecified)
inactive: [1] 22.7 µM | [2] 43.2 µM | [3] 17.4 µM | [4] 45 µM | [5] 40.1 µM | [6] 35.2 µM | [7] 16.5 µM | [8] 36.9 µM | [10] 28.5 µM | [11] 22.4 µM | [12] > 100 µM | [14] 88.5 µM | [15] 39 µM | [16] 20.3 µM | [17] 24.4 µM

Nc1n[n+](-c2ccccc2)no1
inactive: [1] 24.7 µM | [2] 32.7 µM | [3] 45.3 µM | [5] 51.4 µM | [6] > 100 µM | [7] 45.8 µM | [8] 42 µM | [9] > 100 µM | [10] 5.37 µM | [12] > 100 µM | [13] > 100 µM | [14] > 100 µM | [15] 52.7 µM | [16] > 100 µM | [17] 27.6 µM
